# Laboratory results: ChEMBL document CHEMBL4680331, “Ancistrobrevidines A-C and related naphthylisoquinoline alkaloids with cytotoxic activities against HeLa and pancreatic cancer cells, from the liana Ancistrocladus abbreviatus” (Bioorg Med Chem, 2021)
# pIC50: −log10 of the molar value.
# How the values were obtained:
# HeLa = assay: Cytotoxicity against human HeLa cells assessed as decrease in cell viability measured after 72 hrs by WST-8 assay; assay type: functional, cell-based
# PANC-1 [1] = assay: Anti-austerity activity against nutrient-deprived human PANC-1 cells assessed as cell death incubated for 24 hrs by WST-8 assay; assay type: functional
# PANC-1 [2] = assay: Induction of morphological changes in human PANC-1 cells cultured in nutrient-deprived medium assessed as cell death at 20 uM measured after 24 hrs by ethidium bromide/acridine orange staining based phase contrast microscopy relative to control; assay type: functional
# PANC-1 [3] = assay: Inhibition of colony formation in human PANC-1 cells at 10 uM cultured in nutrient rich DMEM medium measured after 24 hrs by crystal violet staining based assay relative to control; assay type: functional
# PANC-1 [4] = assay: Inhibition of colony formation in human PANC-1 cells at 40 uM cultured in nutrient rich DMEM medium measured after 24 hrs by crystal violet staining based assay relative to control; assay type: functional
# PANC-1 [5] = assay: Inhibition of cell migration in human PANC1 cells assessed as open wound area at 20 uM cultured in nutrient rich DMEM medium measured after 48 hrs by quantitative real-time imaging based wound healing assay relative to control; assay type: functional; parameters: scale not given: the % may be the effect or the level left
# PANC-1 [6] = assay: Inhibition of cell migration in human PANC1 cells assessed as open wound area at 20 uM cultured in nutrient rich DMEM medium measured after 24 hrs by quantitative real-time imaging based wound healing assay (reference value: 50%); assay type: functional; parameters: scale not given: the % may be the effect or the level left
# PANC-1 [7] = assay: Inhibition of colony formation in human PANC-1 cells at 20 uM cultured in nutrient rich DMEM medium measured after 24 hrs by crystal violet staining based assay relative to control; assay type: functional
# PANC-1 [8] = assay: Inhibition of cell migration in human PANC1 cells assessed as open wound area at 40 uM cultured in nutrient rich DMEM medium measured after 48 hrs by quantitative real-time imaging based wound healing assay relative to control; assay type: functional; parameters: scale not given: the % may be the effect or the level left
# PANC-1 [9] = assay: Cytotoxicity against nutrient-rich DMEM cultured human PANC-1 cells incubated for 24 hrs by WST-8 assay; assay type: cell-based; conditions: panc-1, 24 h
# PANC-1 [10] = assay: Inhibition of cell migration in human PANC1 cells assessed as open wound area at 40 uM cultured in nutrient rich DMEM medium measured after 24 hrs by quantitative real-time imaging based wound healing assay (reference value: 50%); assay type: functional; parameters: scale not given: the % may be the effect or the level left
SMILES,pIC50 (HeLa),PC50 (PANC-1 [1]) [µM],also measured
COc1cccc2c1C(=O)C(=O)C(C)=C2c1c(OC)cc(O)c2c1C[C@H](C)N[C@H]2C,4.07,28.5,
COc1cc(OC)c(-c2ccc(OC)c3c(OC)cc(C)cc23)c2c1C(C)=N[C@@H](C)C2 [ANCISTROEALAINE A],,18.8,
COc1cc(O)c(-c2c(C)cc(OC)c3c(OC)cccc23)c2c1C(C)=N[C@H](C)C2,< 4.00,46.8,
COc1cc(OC)c(-c2c(C)cc(OC)c3c(OC)cccc23)c2c1C(C)=N[C@H](C)C2,4.33,64.5,
COc1cc(OC)c(-c2ccc(O)c3c(OC)cc(C)cc23)c2c1C(C)=N[C@@H](C)C2,5.14,13.3,Activity (PANC-1 [2]): 100%; Activity (HeLa): Dose-dependent effect; inhibition at 10 µM (PANC-1 [3]): 63%; inhibition at 40 µM (PANC-1 [4]): 100%; Activity (PANC-1 [5]): 25%; Activity (PANC-1 [6]): 62%; inhibition at 20 µM (PANC-1 [7]): 95%; Activity (PANC-1 [8]): 70%; Activity (PANC-1 [9]): Non-Toxic; Activity (PANC-1 [10]): 77%
COc1cc(C[C@H]2C(=O)OC[C@@H]2Cc2ccc(OC)c(OC)c2)ccc1O [ARCTIGENIN],,0.83,
